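Method: 48-hour compound exposure of cells in 96-well plates, five concentrations, linear interpolation of endpoints. At the GI50, growth is halved.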 Calls of active or inactive are those of the source. Rule as the data show it: active = GI50 up to about 1.1 µM and inactive = higher.
Key:
Assay in all cases: NCI tumour cell line growth inhibition, 48 h
MCF7 = tested on: MCF7
MDA-MB-231 = tested on: MDA-MB-231
NCI-H522 = tested on: NCI-H522
SK-MEL-28 = tested on: SK-MEL-28
SNB-19 = tested on: SNB-19
UACC-62 = tested on: UACC-62
HCC 2998 = tested on: HCC 2998
KM12 = tested on: KM12
BT-549 = tested on: BT-549
UACC-257 = tested on: UACC-257
HCT-15 = tested on: HCT-15
CCRF-CEM = tested on: CCRF-CEM
HCT-116 = tested on: HCT-116
UO-31 = tested on: UO-31
OVCAR-3 = tested on: OVCAR-3
786-0 = tested on: 786-0
SF-539 = tested on: SF-539
T47D = tested on: T47D
SR = tested on: SR

Row | SMILES | GI50 (MCF7) | GI50 (MDA-MB-231) | GI50 (NCI-H522) | GI50 (SK-MEL-28) | GI50 (SNB-19) | GI50 (UACC-62) | GI50 (HCC 2998) | GI50 (KM12) | GI50 (BT-549) | GI50 (UACC-257) | GI50 (HCT-15) [µM] | GI50 (CCRF-CEM) | GI50 (HCT-116) | GI50 (UO-31) | GI50 (OVCAR-3) | GI50 (786-0) | GI50 (SF-539) | GI50 (T47D) | GI50 (SR)
1 | O=P1(c2ccccc2)C(c2ccccc2)CCC1c1ccccc1 (centres undefined) | > 100 µM (inactive) | 42.9 µM (inactive) | 26.4 µM (inactive) | > 100 µM (inactive) | > 100 µM (inactive) | 50.7 µM (inactive) | > 100 µM (inactive) | 30 µM (inactive) | 29.7 µM (inactive) | 71.1 µM (inactive) | 28.8 | 21.4 µM (inactive) | 35.6 µM (inactive) | 66.1 µM (inactive) | 53 µM (inactive) | > 100 µM (inactive) | > 100 µM (inactive) | – | –
2 | C=CCCCCOC1C=CC(O)C(CO)O1 (centres undefined) | > 100 µM (inactive) | > 100 µM (inactive) | > 100 µM (inactive) | > 100 µM (inactive) | > 100 µM (inactive) | > 100 µM (inactive) | > 100 µM (inactive) | > 100 µM (inactive) | > 100 µM (inactive) | > 100 µM (inactive) | > 100 | > 100 µM (inactive) | > 100 µM (inactive) | > 100 µM (inactive) | > 100 µM (inactive) | > 100 µM (inactive) | > 100 µM (inactive) | > 100 µM (inactive) | –
3 | Cn1c(=O)n2n(c1=O)C1C(=CC2)C2C=CC1n1c(=O)n(C)c(=O)n12 (centres undefined) | – | > 100 µM (inactive) | > 100 µM (inactive) | > 100 µM (inactive) | > 100 µM (inactive) | > 100 µM (inactive) | – | > 100 µM (inactive) | > 100 µM (inactive) | > 100 µM (inactive) | > 100 | > 100 µM (inactive) | > 100 µM (inactive) | > 100 µM (inactive) | > 100 µM (inactive) | > 100 µM (inactive) | > 100 µM (inactive) | > 100 µM (inactive) | –
4 | CC(C)(C)OC(=O)[C@@H]1CCC(=S)N1Cc1ccccc1 | > 100 µM (inactive) | > 100 µM (inactive) | > 100 µM (inactive) | > 100 µM (inactive) | > 100 µM (inactive) | > 100 µM (inactive) | > 100 µM (inactive) | > 100 µM (inactive) | 71.8 µM (inactive) | > 100 µM (inactive) | > 100 | > 100 µM (inactive) | > 100 µM (inactive) | 78.2 µM (inactive) | > 100 µM (inactive) | > 100 µM (inactive) | > 100 µM (inactive) | – | 76.9 µM (inactive)
5 | Cc1ccc(N(C)S(=O)(=O)c2ccc([N+](=O)[O-])cc2)cc1 | > 100 µM (inactive) | 85.3 µM (inactive) | > 100 µM (inactive) | > 100 µM (inactive) | > 100 µM (inactive) | 52.5 µM (inactive) | 93.5 µM (inactive) | 74.6 µM (inactive) | > 100 µM (inactive) | > 100 µM (inactive) | 91.4 | > 100 µM (inactive) | > 100 µM (inactive) | 44.3 µM (inactive) | > 100 µM (inactive) | > 100 µM (inactive) | > 100 µM (inactive) | – | 78.2 µM (inactive)
6 | CSc1nc2c(c(N(C)C)n1)C=Nn1c(nc3ccccc31)S2 | – | 78.2 µM (inactive) | 55.5 µM (inactive) | > 100 µM (inactive) | > 100 µM (inactive) | 83 µM (inactive) | 70.5 µM (inactive) | > 100 µM (inactive) | 95.9 µM (inactive) | 99.1 µM (inactive) | > 100 | – | 57.7 µM (inactive) | 51.1 µM (inactive) | > 100 µM (inactive) | 65 µM (inactive) | – | 64.1 µM (inactive) | –
7 | CCCCN(CC)C(=O)C1=C(C)NC(C)=C(C(=O)N(CC)CCCC)C1 | > 100 µM (inactive) | > 100 µM (inactive) | – | > 100 µM (inactive) | > 100 µM (inactive) | 57.7 µM (inactive) | > 100 µM (inactive) | > 100 µM (inactive) | > 100 µM (inactive) | > 100 µM (inactive) | > 100 | – | > 100 µM (inactive) | > 100 µM (inactive) | > 100 µM (inactive) | > 100 µM (inactive) | > 100 µM (inactive) | 62.1 µM (inactive) | –
8 | COc1cc(NS(C)(=O)=O)ccc1Nc1ccnc2ccc3[nH]ccc3c12 | 15.6 µM (inactive) | 11.6 µM (inactive) | 5.6 µM (inactive) | 16.6 µM (inactive) | 15.5 µM (inactive) | 17.8 µM (inactive) | – | 13.8 µM (inactive) | 14.6 µM (inactive) | 18.2 µM (inactive) | 58.3 | 10.4 µM (inactive) | 12.2 µM (inactive) | 40.2 µM (inactive) | 15.3 µM (inactive) | 14.6 µM (inactive) | – | 14.9 µM (inactive) | –

Reference: ChEMBL document CHEMBL1201862, “PubChem BioAssay data set” (2004)
